Measured values from patent US20150320773A1, “TREATMENT OF INFLAMMATION” (Vascular Biogenics Ltd., priority 2011, published 2015).

Columns and labels:
TNFα receptor = settings: concentrations of up to 17 μM; data not shown
TLR4 [1] = target: T1, TLR4 (Mus musculus, UniProt Q9QUK6)
T1 sequence (Q9QUK6 26-835): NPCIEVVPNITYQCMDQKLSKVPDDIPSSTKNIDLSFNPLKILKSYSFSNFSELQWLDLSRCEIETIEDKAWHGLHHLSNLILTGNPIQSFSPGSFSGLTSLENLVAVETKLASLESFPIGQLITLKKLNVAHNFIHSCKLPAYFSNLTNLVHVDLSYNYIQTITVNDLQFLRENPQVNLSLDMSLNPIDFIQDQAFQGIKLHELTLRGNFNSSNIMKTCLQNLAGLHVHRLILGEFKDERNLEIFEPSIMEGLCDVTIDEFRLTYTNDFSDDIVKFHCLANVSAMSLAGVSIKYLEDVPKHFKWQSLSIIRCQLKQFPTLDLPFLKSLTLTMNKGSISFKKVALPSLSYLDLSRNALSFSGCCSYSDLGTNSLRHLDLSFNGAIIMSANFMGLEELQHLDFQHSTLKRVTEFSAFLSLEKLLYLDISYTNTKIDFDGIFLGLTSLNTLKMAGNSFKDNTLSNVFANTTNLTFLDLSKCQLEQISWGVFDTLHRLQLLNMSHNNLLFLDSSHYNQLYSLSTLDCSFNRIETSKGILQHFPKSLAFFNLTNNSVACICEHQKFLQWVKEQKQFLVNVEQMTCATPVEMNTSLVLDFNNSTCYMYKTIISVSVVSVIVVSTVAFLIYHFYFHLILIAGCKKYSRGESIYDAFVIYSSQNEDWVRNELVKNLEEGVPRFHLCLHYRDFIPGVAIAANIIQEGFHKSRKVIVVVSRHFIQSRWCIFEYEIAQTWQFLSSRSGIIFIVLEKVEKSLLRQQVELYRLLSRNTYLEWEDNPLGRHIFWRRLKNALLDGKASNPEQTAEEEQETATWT
T1 sequence (Q9JHF9 19-160 partner): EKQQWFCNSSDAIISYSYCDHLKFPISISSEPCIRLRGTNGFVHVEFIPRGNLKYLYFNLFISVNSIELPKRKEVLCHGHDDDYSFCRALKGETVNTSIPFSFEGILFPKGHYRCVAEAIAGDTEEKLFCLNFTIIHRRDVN
Experimental: Cells were washed and re-suspended in lysis buffer containing 1:100 dithiothreitol (DTT) (Bio-Lab), and phosphatase and protease inhibitors (Thermo Scientific). Samples were loaded on a precasted Criterion TGX gel (BIO-RAD, UK) and transferred onto nitrocellulose membrane. Blots were blocked with 5% milk or bovine serum albumin (BSA) in TBST (Tris buffer saline with TWEEN 20) for 1 hour, followed by incubation with primary and secondary antibodies. Membranes were developed using the ECL kit (Thermo Scientific).
Toll-like receptors were activated in mouse BMDCs (bone marrow dendritic cells) by specific agonists, and the effect of receptor activation was determined via Western blot for phosphorylation of p38 MAP kinase, which is downstream of TLRs.

[2] = tested on: kinases, phosphatases, ion channels/ransporters; test: Selectivity: effect on activity of additional proteins
[3] = tested on: G-coupled protein receprors (GPRC); test: as above
monocytes = test: Phagocytosis assay (whole blood), monocytes; type: cell-based, human; set-up: dose or concentration left out as unconfirmed; settings: VB-201 doses of 5 or 10
Experimental: Phagocytosis assays were conducted using pHrodo™ Phagocytosis Particle Labeling Kit (Invitrogen) according to the manufacturer protocol. […] Then, pHrodo dye-labeled E. coli bacteria were mixed with the treated blood samples, in 20:1 ratio of pHrodo™ particles to phagocytosing cells and incubated for additional 15 minutes. Each sample was analyzed both at 4° C. (no phagocytosis, negative control) and 37° C. Following incubation, red blood cells were removed by lysis and the samples were washed 3 times with wash buffer. For gating on specific subpopulations, cells were labeled with anti-CD14-FITC (monocytes and granulocytes marker, BD Biosciences) and anti-CD66b-PerCP/Cy5.5 (granulocytes marker, BioLegend) antibodies. pHrodo fluorescence intensity was analyzed by FACS.
To this end, a phagocytosis assay was performed on whole blood from healthy donors, and the capacity of leukocyte subsets to phagocytose PE-labeled E. Coli particles was tested in presence or absence of VB-201. As a negative control, we used blood without bacterial particles, while a positive control included blood and labeled-bacterial particles incubated at 37° C. Cells were then stained with CD14 and CD66b antibodies to differentiate between monocytes and granulocytes and were analyzed by FACS.

TLR4 [4] = target: TLR4 (Homo sapiens, UniProt O00206); settings: human monocytes; LPS; 1.7, 8.5 or 17 μM
ApoE KO mice = test: Atherosclerosis study in ApoE KO mice
Experimental: Dosing was performed once a day, for 8 weeks (n=1-12/group). […] Lesion area was calculated using a computerized analysis method (Image Pro Plus software, V. 4.5.1.29, Medical Cybernetics Corporation). Aorta lesion area was determined using the Image-Pro Plus software, which measured the staining area covered by Sudan IV stain adhering to the lesioned tissue. Lesion size in the aorta was measured and the percentage of lesioned area was calculated relative to the size of the entire aorta.
Immunostaining was performed on frozen sections which were fixed with cold acetone and blocked with 4% normal rabbit serum/PBS (Vector Lab). Following incubation with Rat anti-mouse CD68 (Serotec NCA1957; 1:250) and anti-Rat biotinylated antibody (Vector Lab AB-4001; 1:200), signal was developed using Vectastain ABC-Alkaline phosphatase kit and Vector Red Substrate (Vector Lab). Mayer's Hematoxylin was used for counterstaining.

patients = test: Vascular inflammation in patients (statin therapy); type: in vivo, human; settings: in some instances
Experimental: In some examples according to any one of the embodiments of Methods 1a, 1b, 2, and 3 described herein, the vascular inflammation is measured using positron emission computed tomography (PET/CT) imaging quantifying 18-fluorodeoxyglucose (18-FDG) uptake as a target to background ratio (TBR), e.g., as described herein, or in Example 8 of WO2011/083465.

Lp-PLA2 = Lp-PLA2 (Homo sapiens, UniProt Q13093); settings: concentrations of up to 40 μM; data not shown
[5] = tested on: MCF-7 human breast cancer cells; test: Wound-healing 'scratch' assay; type: cell-based; settings: data not shown
[6] = target: TLR2:TLR1 dimer, TLR2:TLR6 dimer (Mus musculus, UniProt Q9QUN7); settings: 1.7, 8.5 or 17 μM
TLR5 [7] = target: TLR5 (Mus musculus, UniProt Q9JLF7); settings: mouse BMDCs; flagellin; 1.7, 8.5 or 17 μM
TLR5 [8] = target: TLR5 (Homo sapiens, UniProt O60602); settings: human monocytes; flagellin; 1.7, 8.5 or 17 μM
TLR2 = TLR2 (Homo sapiens, UniProt O60603); settings: human monocytes; BO-VB201; anti-human TLR2 blocking antibody
Experimental: Human monocytes were incubated for 15 min with anti-human TLR2 blocking antibody. […] Streptavidin-APC (1:200) was used to detect binding.

[9] = tested on: NIH-3T3 mouse fibroblasts; test: Wound-healing 'scratch' assay; type: cell-based; settings: data not shown
human monocytes = test: Cell viability assay (MTS) of human monocytes; type: cell-based; settings: 16 hours, doses of 1-10 j±g/ml
TLR9 = TLR9 (Mus musculus, UniProt Q9EQU3); settings: mouse BMDCs; CpG; 1.7, 8.5 or 17 μM

Sequence of TLR2:TLR1 dimer, TLR2:TLR6 dimer (Q9QUN7 25-784): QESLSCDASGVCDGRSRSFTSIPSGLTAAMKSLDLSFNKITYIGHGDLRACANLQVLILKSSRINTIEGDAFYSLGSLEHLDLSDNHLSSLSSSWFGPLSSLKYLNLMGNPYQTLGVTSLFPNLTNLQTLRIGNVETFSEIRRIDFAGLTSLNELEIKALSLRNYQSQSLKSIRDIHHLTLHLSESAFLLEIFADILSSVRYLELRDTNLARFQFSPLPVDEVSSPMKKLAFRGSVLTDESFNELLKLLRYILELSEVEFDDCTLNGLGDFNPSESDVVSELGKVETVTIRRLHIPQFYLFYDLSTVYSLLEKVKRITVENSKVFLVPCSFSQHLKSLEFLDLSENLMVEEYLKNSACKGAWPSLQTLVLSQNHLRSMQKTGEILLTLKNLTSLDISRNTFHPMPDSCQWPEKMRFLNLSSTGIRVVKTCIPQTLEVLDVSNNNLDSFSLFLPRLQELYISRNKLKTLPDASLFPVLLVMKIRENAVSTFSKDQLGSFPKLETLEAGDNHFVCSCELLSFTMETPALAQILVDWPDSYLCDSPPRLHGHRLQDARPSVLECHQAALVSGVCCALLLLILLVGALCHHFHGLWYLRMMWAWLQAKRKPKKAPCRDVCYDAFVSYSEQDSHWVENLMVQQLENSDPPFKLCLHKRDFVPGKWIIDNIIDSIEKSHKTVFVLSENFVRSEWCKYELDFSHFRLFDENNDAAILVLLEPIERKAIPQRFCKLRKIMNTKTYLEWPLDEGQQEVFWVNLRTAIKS
Sequence of TLR2 (O60603 21-784): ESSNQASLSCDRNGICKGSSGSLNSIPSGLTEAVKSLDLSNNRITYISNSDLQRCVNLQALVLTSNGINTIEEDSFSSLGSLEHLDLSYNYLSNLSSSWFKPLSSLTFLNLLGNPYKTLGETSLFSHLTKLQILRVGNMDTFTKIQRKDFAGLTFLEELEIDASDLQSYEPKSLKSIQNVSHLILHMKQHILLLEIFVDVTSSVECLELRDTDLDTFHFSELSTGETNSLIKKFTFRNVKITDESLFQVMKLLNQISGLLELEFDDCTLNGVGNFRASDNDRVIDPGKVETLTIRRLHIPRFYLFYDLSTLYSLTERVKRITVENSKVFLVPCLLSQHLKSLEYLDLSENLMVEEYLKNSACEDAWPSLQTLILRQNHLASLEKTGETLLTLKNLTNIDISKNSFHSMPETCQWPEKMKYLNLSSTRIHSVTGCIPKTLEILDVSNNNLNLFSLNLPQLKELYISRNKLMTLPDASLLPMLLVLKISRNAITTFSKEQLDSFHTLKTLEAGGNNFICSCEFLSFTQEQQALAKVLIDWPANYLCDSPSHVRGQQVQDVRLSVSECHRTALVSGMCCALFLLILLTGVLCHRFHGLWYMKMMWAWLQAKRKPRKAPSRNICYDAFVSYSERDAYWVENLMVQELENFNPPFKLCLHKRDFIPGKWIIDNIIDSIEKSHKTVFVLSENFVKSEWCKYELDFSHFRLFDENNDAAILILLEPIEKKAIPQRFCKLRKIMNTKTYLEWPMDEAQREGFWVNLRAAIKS
Sequence of Lp-PLA2 (Q13093 22-441): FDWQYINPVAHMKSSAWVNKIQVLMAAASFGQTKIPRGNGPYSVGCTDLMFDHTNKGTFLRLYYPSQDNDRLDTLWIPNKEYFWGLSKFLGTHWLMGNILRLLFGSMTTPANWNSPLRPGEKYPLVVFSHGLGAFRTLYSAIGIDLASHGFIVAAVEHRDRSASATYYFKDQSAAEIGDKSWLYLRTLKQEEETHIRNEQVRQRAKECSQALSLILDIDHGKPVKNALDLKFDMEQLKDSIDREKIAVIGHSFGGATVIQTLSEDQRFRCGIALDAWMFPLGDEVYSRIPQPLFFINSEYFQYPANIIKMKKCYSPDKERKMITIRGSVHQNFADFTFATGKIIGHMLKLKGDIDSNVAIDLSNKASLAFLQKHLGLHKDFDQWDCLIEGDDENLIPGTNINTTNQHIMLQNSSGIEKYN
Sequence of TLR5 (Homo sapiens, UniProt O60602) (O60602 21-858): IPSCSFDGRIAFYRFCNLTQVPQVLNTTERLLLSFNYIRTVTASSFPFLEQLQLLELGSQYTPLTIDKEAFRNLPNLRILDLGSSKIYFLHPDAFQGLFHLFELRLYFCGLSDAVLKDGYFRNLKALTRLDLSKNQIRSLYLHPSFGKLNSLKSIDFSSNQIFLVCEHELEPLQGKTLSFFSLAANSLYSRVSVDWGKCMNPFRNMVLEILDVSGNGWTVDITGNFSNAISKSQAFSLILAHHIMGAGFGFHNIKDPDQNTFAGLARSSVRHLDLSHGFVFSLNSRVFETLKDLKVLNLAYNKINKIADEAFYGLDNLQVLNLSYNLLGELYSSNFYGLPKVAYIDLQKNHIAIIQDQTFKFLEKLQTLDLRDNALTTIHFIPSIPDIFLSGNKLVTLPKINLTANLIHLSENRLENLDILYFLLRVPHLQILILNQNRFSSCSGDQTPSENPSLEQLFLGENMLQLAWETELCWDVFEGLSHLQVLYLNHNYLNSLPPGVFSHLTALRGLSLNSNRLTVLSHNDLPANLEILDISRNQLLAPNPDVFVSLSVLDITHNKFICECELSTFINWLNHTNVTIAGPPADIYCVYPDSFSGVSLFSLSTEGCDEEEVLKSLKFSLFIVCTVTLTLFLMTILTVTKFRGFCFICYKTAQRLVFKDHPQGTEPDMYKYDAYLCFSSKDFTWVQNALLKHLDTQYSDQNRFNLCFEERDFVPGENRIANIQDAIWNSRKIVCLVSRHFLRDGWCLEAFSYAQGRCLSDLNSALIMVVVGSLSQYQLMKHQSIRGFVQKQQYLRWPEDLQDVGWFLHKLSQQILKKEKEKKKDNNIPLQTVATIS
Sequence of TLR5 (Mus musculus, UniProt Q9JLF7) (Q9JLF7 27-859): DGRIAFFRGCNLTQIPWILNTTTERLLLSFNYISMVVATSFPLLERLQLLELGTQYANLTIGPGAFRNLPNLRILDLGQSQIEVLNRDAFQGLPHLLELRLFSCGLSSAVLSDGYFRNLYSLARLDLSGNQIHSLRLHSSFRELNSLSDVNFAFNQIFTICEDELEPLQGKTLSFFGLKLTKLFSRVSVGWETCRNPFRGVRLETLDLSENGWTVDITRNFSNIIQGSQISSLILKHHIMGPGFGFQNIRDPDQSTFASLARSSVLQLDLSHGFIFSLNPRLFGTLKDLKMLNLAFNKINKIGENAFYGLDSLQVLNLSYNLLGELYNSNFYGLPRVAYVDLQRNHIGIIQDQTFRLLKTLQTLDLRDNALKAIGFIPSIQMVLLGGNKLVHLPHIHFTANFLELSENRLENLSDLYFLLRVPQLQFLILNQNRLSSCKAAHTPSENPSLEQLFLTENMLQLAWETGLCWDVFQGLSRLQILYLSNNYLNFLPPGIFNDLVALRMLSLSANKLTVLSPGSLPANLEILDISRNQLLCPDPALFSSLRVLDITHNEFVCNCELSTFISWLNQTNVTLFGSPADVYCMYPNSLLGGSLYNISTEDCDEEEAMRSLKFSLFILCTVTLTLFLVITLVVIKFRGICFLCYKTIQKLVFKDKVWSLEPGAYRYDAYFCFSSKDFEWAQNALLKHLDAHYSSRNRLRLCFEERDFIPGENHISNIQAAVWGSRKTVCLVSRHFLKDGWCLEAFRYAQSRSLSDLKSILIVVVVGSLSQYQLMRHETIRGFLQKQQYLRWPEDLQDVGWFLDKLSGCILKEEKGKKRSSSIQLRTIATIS
Sequence of TLR4 (Homo sapiens, UniProt O00206) (O00206 24-839): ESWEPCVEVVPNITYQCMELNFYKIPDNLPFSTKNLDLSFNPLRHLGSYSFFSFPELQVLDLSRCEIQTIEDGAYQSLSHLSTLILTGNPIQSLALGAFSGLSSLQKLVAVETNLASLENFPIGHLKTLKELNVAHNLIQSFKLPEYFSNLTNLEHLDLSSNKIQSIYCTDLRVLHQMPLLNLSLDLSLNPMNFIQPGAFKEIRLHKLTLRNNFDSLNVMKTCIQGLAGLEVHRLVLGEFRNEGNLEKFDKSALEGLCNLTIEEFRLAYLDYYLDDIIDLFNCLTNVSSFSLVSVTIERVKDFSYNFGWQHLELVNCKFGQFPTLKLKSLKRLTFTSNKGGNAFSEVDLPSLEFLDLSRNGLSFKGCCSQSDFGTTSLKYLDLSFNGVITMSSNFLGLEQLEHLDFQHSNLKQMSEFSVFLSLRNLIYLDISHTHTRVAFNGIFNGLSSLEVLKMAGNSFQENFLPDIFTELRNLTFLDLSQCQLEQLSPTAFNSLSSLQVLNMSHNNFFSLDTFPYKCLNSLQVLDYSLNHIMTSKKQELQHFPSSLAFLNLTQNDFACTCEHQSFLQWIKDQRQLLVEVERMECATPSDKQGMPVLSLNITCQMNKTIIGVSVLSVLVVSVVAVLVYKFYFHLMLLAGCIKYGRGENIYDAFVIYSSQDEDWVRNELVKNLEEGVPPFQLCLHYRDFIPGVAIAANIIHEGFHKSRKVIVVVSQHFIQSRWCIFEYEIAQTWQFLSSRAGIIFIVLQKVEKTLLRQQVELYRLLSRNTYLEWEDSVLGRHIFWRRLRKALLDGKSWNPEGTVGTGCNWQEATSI
Sequence of TLR4 (Homo sapiens, UniProt O00206) (Q9Y6Y9 17-160 partner limits assumed): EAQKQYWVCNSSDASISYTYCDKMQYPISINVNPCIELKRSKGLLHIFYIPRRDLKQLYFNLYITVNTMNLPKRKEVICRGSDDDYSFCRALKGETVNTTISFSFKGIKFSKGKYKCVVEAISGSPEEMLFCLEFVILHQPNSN

## CCCCCCCCCCCCCCCCOC[C@H](COP(=O)([O-])OCC[N+](C)(C)C)OCCCCC(=O)O [VB-201, (R)-1-hexadecyl-2-(4′-carboxyl)butyl-sn-glycero-3-phosphocholine]
TNFα receptor
  inhibition of TNFα receptor: No inhibition
TLR4 [1]; RAW 264.7 murine macrophages
  LPS-induced signaling: inhibited LPS-induced signaling in a dose-dependent manner
TLR4 [1]; mouse BMDCs, LPS, 1.7, 8.5 or 17 μM
  p38 phosphorylation following activation of TLR4: inhibited p^38 phosphorylation in a dose-dependent manner
TLR4 [1]; mouse peritoneal macrophages, LPS, 1.7, 8.5 or 17 μM
  activation of p38, ERK1/2 and the NFκB pathway following activation of TLR4: inhibited activation of p38, ERK1/2 and the NFκB pathway in a dose-dependent manner
[2]
  inhibition of kinases, phosphatases, ion channels/ransporters: No inhibition
[3]
  agonistic or antagonistic effect on G-coupled protein receprors (GPRC): no agonistic or antagonistic effect
monocytes
  monocyte phagocytosis capacity: did not have any significant effect
TLR4 [4]
  activation of p38, ERK1/2 and the NFκB pathway following activation of TLR4: inhibited activation of p38, ERK1/2 and the NFκB pathway in a dose-dependent manner
ApoE KO mice; 1.5 mg/kg, daily oral gavage, 8 weeks
  plaque formation relative to the PBS control: significantly reduced plaque formation
ApoE KO mice; daily oral gavage, 8 weeks, 0.15 or 1.5 mg/kg
  fatty streaks: markedly reduced
ApoE KO mice; relative to controls
  macrophage accumulation in the aortic sinus lesion (anti-CD68): reduced
patients
  effect on vascular inflammation in patients undergoing statin therapy versus patients not being treated with statins: slightly better
Lp-PLA2
  inhibition of Lp-PLA2: No inhibition
[5]
  cell migration in wound-healing scratch assay: no effect on cell migration
[6]; mouse BMDCs, Pam3CSK4, PGN
  p38 phosphorylation following activation of dimers of TLR2: inhibited p^38 phosphorylation in a dose-dependent manner
[6]; mouse peritoneal macrophages, Pam3CSK4
  activation of p38, ERK1/2 and the NFκB pathway following activation of TLR2:TLR1 dimer: inhibited activation of p38, ERK1/2 and the NFκB pathway in a dose-dependent manner
TLR5 [7]
  p38 phosphorylation following activation of TLR5: no apparent effect
TLR5 [8]
  activation of p38, ERK1/2 and the NFκB pathway following TLR5 activation: no apparent effect
TLR2
  binding to cell surface expressed TLR2: Binds Cell Surface Expressed TLR2
[9]
  cell migration in wound-healing scratch assay: no effect on cell migration
Human monocytes
  monocyte viability: no effect on monocyte viability
TLR9
  p38 phosphorylation following activation of TLR9: no apparent effect
